Assay results taken from patent US20100075984A1, “DICARBONYLIC COMPOUNDS WITH ANTIBACTERIAL ACTIVITY” (LABORATORIOS SALVAT, S.A., priority 2006, published 2010).
≈ marks a conversion by molar mass, not a printed value.

Assays:
[1] = test system: Staphylococcus aureus (BCM-012); test: Antimicrobial activity, microdilution in microtiter plate (MIC); assay type: cell-based; settings: Staphylococcus aureus BCM-012 (SALVAT collection); two-fold serial dilutions, 96 well plates; incubation 24 h at 35° C.
Experimental: (§1) In order to assess the antimicrobial activity of the compounds of the present invention a method of microdilution in microtiter plate was used. The compounds were diluted in a nutritious medium and, subsequently, distributed by two-fold serial dilutions in 96 well plates. Then, plates were inoculated with a bacterial suspension. After incubation for 24 h at 35° C. the minimum inhibitory concentration (MIC) of the drug in μg/mL was determined as the lowest concentration of compound which inhibits the growth of the bacterium. Results included in table 7 illustrate the antimicrobial activity of some of the compounds of the present invention in comparison with thus obtained with two compounds (linezolid and eperezolid) of a known antimicrobial activity. The antimicrobial activity of the compound versus Streptococcus faecalis (BCM-010, strain designation as for SALVAT collection) and Staphylococcus aureus (BCM-012, strain designation as for SALVAT collection), respectively, is shown in the different columns.

[2] = test system: Streptococcus faecalis (BCM-010); test: as above; assay type: cell-based; settings: Streptococcus faecalis BCM-010 (SALVAT collection), two-fold serial dilutions, 96 well plates, incubation 24 h at 35° C.; for MIC: Enterococcus faecalis
Experimental: as §1

SMILES | MIC [1] | MIC [2] | BCM-012 MIC [1] | BCM-010 MIC [2]
CC(=O)NC[C@H]1CN(c2ccc(N3CCN(C(=O)CO)CC3)c(F)c2)C(=O)O1 [Eperezolid, eperezolid, reference compound] | 2 µg/mL (≈ 5.07 µM) | 4 µg/mL (≈ 10.1 µM) |  | 
O=CNCC(=O)N1CCN(c2ccc(-c3cc(CNc4ccon4)on3)cc2F)CC1 [I_1] |  |  | 1 µg/mL | 2 µg/mL
O=C(NC(C(=O)N1CCN(c2ccc(-c3cc(CNc4ccon4)on3)cc2F)CC1)c1ccccc1)c1ccc2[nH]cnc2c1 (centres unmarked) [I_153] |  |  | 2 µg/mL | 2 µg/mL
CN(CC(=O)N1CCN(c2ccc(-c3cc(CNc4ccon4)on3)cc2F)CC1)C(=O)c1ccc2[nH]cnc2c1 [I_155] |  |  | 2 µg/mL | 2 µg/mL
O=C(NCC(=O)N1CCN(c2c(F)cc(-c3cc(CNc4ccon4)on3)cc2F)CC1)c1ccc2cccc(O)c2n1 [I_160] |  |  | 0.25 µg/mL | 0.25 µg/mL
Cc1ccc(C(=O)N[C@H](C(=O)N2CCN(c3ccc(-c4cc(CNc5ccon5)on4)cc3F)CC2)C(C)C)cn1 [I_170] |  |  | 4 µg/mL | 4 µg/mL
C[C@@H](NC(=O)c1ncccc1N)C(=O)N1CCN(c2ccc(-c3cc(CNc4ccon4)on3)cc2F)CC1 [I_171] |  |  | 2 µg/mL | 1 µg/mL
O=C(NCC(=O)N1CCN(c2ccc(-c3cc(CO)on3)cc2F)CC1)c1ccc2cccc(O)c2n1 [I_192] |  |  | 0.5 µg/mL | 0.5 µg/mL
Cc1ccc(C(=O)N[C@@H](C)C(=O)N2CCN(c3ccc(-c4cc(CO)on4)cc3F)CC2)cn1 [I_213] |  |  | 1 µg/mL | 1 µg/mL
O=C(NCC(=O)N1CCN(c2ccc(-c3cc(CNc4ccon4)on3)cc2F)CC1)Nc1ccc([N+](=O)[O-])cc1 [Ia_1, 1-[2-(4-{2-Fluoro-4-[5-(isoxazol-3-ylaminomethyl)isoxazol-3-yl]phenyl}piperazin-1-yl)-2-oxoethyl]-3-(4-nitrophenyl)urea] | 1 µg/mL (≈ 1.77 µM) | 2 µg/mL (≈ 3.54 µM) |  | 
CC(=O)NC[C@H]1CN(c2ccc(N3CCOCC3)c(F)c2)C(=O)O1 [Linezolid, linezolid, reference compound] | 2 µg/mL (≈ 5.93 µM) | 4 µg/mL (≈ 11.9 µM) |  | 

The remaining lines, values ahead:

MIC [1] | MIC [2] | BCM-012 MIC [1] | BCM-010 MIC [2] | SMILES
 |  | 0.25 to 0.5 µg/mL | 0.25 to 0.5 µg/mL | O=C(NCC(=O)N1CCN(c2ccc(-c3cc(CNc4ccon4)on3)cc2F)CC1)c1cccc(O)c1 [I_15]
 |  | 0.25 to 0.5 µg/mL | 0.25 to 0.5 µg/mL | Nc1ccc(C(=O)NCC(=O)N2CCN(c3ccc(-c4cc(CNc5ccon5)on4)cc3F)CC2)c(O)c1 [I_32]
 |  | 1 µg/mL | 1 µg/mL | Cc1ncc(-c2cccc(C(=O)NCC(=O)N3CCN(c4ccc(-c5cc(CNc6ccon6)on5)cc4F)CC3)c2)s1 [I_51]
 |  | 0.25 µg/mL | 0.5 to 1 µg/mL | O=C(NCC(=O)N1CCN(c2ccc(-c3cc(CNc4ccon4)on3)cc2F)CC1)c1ccc([N+](=O)[O-])o1 [I_58]
 |  | 2 µg/mL | 2 µg/mL | Cc1nc2cc(C(=O)NCC(=O)N3CCN(c4ccc(-c5cc(CNc6ccon6)on5)cc4F)CC3)ccc2n1CC1CC1 [I_82]
 |  | 1 µg/mL | 2 µg/mL | C#CCn1c(C)nc2cc(C(=O)NCC(=O)N3CCN(c4ccc(-c5cc(CNc6ccon6)on5)cc4F)CC3)ccc21 [I_84]
 |  | 1 µg/mL | 1 µg/mL | CC(=O)Nc1ccc(C(=O)NCC(=O)N2CCN(c3ccc(-c4cc(CNc5ccon5)on4)cc3F)CC2)cn1 [I_117]
 |  | 2 µg/mL | 2 µg/mL | CNCC(=O)NCC(=O)N1CCN(c2ccc(-c3cc(CNc4ccon4)on3)cc2F)CC1 [I_152]
